System: human umbilical vein endothelial cells (HUVECs)
Experiment: SWELL1, pAKT2 and p-eNOS western blots in HUVECs
Type: cell-based
Settings: 96 h
Experimental: HUVECs were purchased from ATCC (CRL-2922^TM) and were grown in M199 growth media supplemented with 20% FBS, 0.05 g Heparin Sodium Salt (Alfa Aesar), and 15 mg ECGS (Millipore Sigma). Cells were cultured on 1% of gelatin-coated plates at 37 °C and 5% CO2. For SN-40X stimulated eNOS and AKT signaling assays, HUVECs were treated for 96 h with the respective compounds and serum-starved overnight (+DMSO or +SN-40X) for 16 h in M199 media plus 1% FBS (Atlanta Biological). After the serum starve, HUVECs were returned to normal growth media for 30 min (+DMSO or +SN-40X) prior to lysate collection. Small interfering RNA (siRNA) mediated knockdown was adapted from Koh et. al., 2008[81]. Briefly, HUVECs were transfected with either a silencer select siRNA with si-SWELL1 (Cat#4392420, sense: […] antisense: […], Invitrogen) or a non-targeting control silencer select siRNA (Cat# 4390846, Invitrogen) upon reaching 90–95% confluency. siRNA was transfected twice, 24 and 72 h after initial seeding of HUVECs. Each siRNA was combined with Opti-MEM (285.25 µl, Cat#11058-021, Invitrogen) siPORT™ amine (8.75 µl, Cat#AM4503, Invitrogen), and the silencer select siRNA (6 µl) in a final volume of 300 µl. HUVECs were transfected for 4 h at 37 °C in 1% FBS containing DMEM media. For short hairpin RNA (shRNA) mediated knockdown approach, HUVECs were transduced with either human adenovirus type 5 targeting SWELL1 (Ad5-shSWELL1) or scrambled non-targeting control (Ad5-shSCR) at a multiplicity of infection (MOI) of 50 for 24 h at 37 °C upon reaching 70% confluency. The cells were then washed with DMEM media and transduced a second time, with a fresh virus, with an MOI of 25 for 12 h at 37 °C. After the final transduction step, the cells were serum-starved as described above for HUVECs, and lysates were collected. The SN-40X compounds were present in the culture media throughout the transfection/transduction for both the si/sh RNA mediated knockdown approaches. HEK-293 (ATCC, #CRL-1573™) cells were maintained in 90% DMEM (25 mM D-Glucose and 4 mM L-Glutamine) containing 10% fetal bovine serum (FBS) and 100 IU penicillin and 100 µg/ml streptomycin.
Adipocytes were washed twice in ice-cold phosphate buffer saline and lysed in RIPA buffer (150 mM NaCl, 20 mM HEPES, 1% NP-40, 5 mM EDTA, pH 7.4) with proteinase/phosphatase inhibitors (Roche). The cell lysate was further sonicated in 10 s cycle intervals 2–3 times and centrifuged at 18,407×g for 30 min at 4 °C and repeated one more time to remove the excess fat. The supernatant was collected and further estimated for protein concentration using a DC protein assay kit (Bio-Rad). Fat and liver tissues were homogenized and suspended in RIPA buffer with inhibitors and further processed in a similar fashion as described above. HUVECs were also prepared in a similar fashion except the lysates were spun only once to remove the cells debris to obtain the clear supernatant. For islets, either human or mouse islets were washed twice with phosphate buffer saline (PBS) and lysed using RIPA buffer containing protease and phosphatase inhibitors. The lysate was further clarified by freezing in liquid nitrogen for about 10 s for three cycles. The supernatant was collected from the whole lysate centrifuged at 16,260×g for 20 min at 4 °C. […] For soleus muscle, the tissue was homogenized in a Bullet Blender homogenizer (Speed-9, Time-3 mins) in 8 volumes of ice-cold muscle homogenization buffer (50 mM Tris, 25 mM NaCl, 0.2% Nonidet P-40, 5 mM EGTA, 2.5 mM EDTA, 20 mM NaF, 20 mM Na4P2O7·10H2O, 2 mM Na3VO4, pH 7.4) supplemented with protease/phosphatase inhibitor (Roche). The homogenized lysate was centrifuged two times at 18,500×g for 20 min at 4 °C and supernatant was collected for protein estimation. Protein samples were further prepared by boiling in 2X or 4X Laemmli buffer. […]

## CCCCC1(C2CCCC2)Cc2cc(OCC(=O)O)c(Cl)c(Cl)c2C1=O (stereo not drawn) [Inactive 1, 2-((2-butyl-6,7-dichloro-2-cyclopentyl-1-oxo-2,3-dihydro-1H-inden-5-yl)oxy)acetic acid]
500 nM
  effect on SWELL1, pAKT2 and p-eNOS: no effect

## CCCCC1(C2CCCC2)Cc2cc(OCCCC(=O)O)c(Cl)c(Cl)c2C1=O (stereo not drawn) [SN-401, 4-((2-butyl-6,7-dichloro-2-cyclopentyl-1-oxo-2,3-dihydro-1H-inden-5-yl)oxy)butanoic acid]
500 nM
  eNOS phosphorylation (Ser1177): increases
Different concentrations
  dose dependence of p-eNOS induction: dose-dependent induction of p-eNOS in HUVECs that saturates beyond 100 nM

## CCCCC1(C2CCCC2)Cc2cc(OCCCCCC(=O)O)c(Cl)c(Cl)c2C1=O (stereo not drawn) [SN-406, 6-((2-butyl-6,7-dichloro-2-cyclopentyl-1-oxo-2,3-dihydro-1H-inden-5-yl)oxy)hexanoic acid]
100 nM
  SWELL1 induction compared to vehicle: 1.5 fold
  basal pAKT2 induction compared to vehicle: 2.8 fold
  p-eNOS induction compared to vehicle: 5.5 fold

Reference: PMC8831520, “Small molecule SWELL1 complex induction improves glycemic control and nonalcoholic fatty liver disease in murine Type 2 diabetes” (Nature Communications, 2022)
